Laboratory results taken from patent publication US20230363391A1, “Biocidal Composition and Method” (ARXADA AG, priority 2020, published 2023).
Marks after values point to notes of the source that are not given here.

Columns and labels:
[1] = tested on: Pseudomonas aeruginosa, Escherichia coli, Enterobacter cloacae, Acinetobacter calcoaceticus; test: In-can challenge test, modified ASTM D2574-97 (Table 1); assay type: cell-based
Description: (§1) Various formulations were made in accordance with the present disclosure and tested for performance. In one challenge test, the efficacy of dicyandiamide as an adjuvant for BIT was evaluated using modified ASTM D2574-97 “Standard Test Method for Resistance of Emulsion Paints in the Container to Attack by Microorganisms” with higher inoculation volumes and frequency. A standard consortium of four (4) bacterial populations: Pseudomonas aeruginosa, Escherichia coli, Enterobacter cloacae, Acinetobacter calcoaceticus was used to inoculate three (3) different samples at ten percent (10%), five percent (5%), or two and a half percent (2.5%) of the sample size. At twenty-four (24) hours and seventy-two (72) hours after each inoculation, a portion of each sample was streaked on tryptic soy agar. A dilution plate count was performed at the last seventy-two (72) hour time point.
(§2) Example data provided in Tables 1, 2 and 3 should be understood as indicating the degree of microbial growth observed for a given data point unless otherwise indicated. In particular, each plate is ranked from 0 through 5c (i.e., one of 0, 1, 2, 3, 4, 5, or 5c) according to the degree of observed microbial growth, where: a “0” ranking indicates no growth; a “1” ranking indicates one (1) through five (5) observed colony forming unit (cfu), i.e., the plate was very lightly contaminated; a “2” ranking indicates six (6) through fifteen (15) cfu, i.e., the plate was lightly contaminated; a “3” ranking indicates sixteen (16) through thirty (30) cfu, i.e., the plate was moderately contaminated; a “4” ranking indicates thirty-one (31) through forty-five (45) cfu, i.e., the plate was heavily contaminated; a “5” ranking indicates greater than (45) cfu, i.e., the plate was severely contaminated; and a “5c” ranking indicates confluent growth, i.e., the plate was very severely contaminated. Thus, for instance, Table 1, Challenge 1 at 24 h for BIT 50 ppm has a value of 5 indicating greater than forty-five (45) cfu were observed. As another example for illustration, Table 1, Challenge 1 at 24 h for dicyandiamide 5,000 ppm + BIT 50 ppm has a value of 1 indicating one (1) through five (5) cfu was observed.

[2] = tested on: Pseudomonas aeruginosa, Escherichia coli, Enterobacter cloacae, Acinetobacter calcoaceticus; test: Repeat in-can challenge test, same conditions (Table 2); assay type: cell-based
Description: as §1, §2

[3] = neutral pH; cited from earlier work
microbial growth = test: In-can challenge test of dicyandiamide as adjuvant for MIT (Table 3); assay type: cell-based; conditions: for Passing result of challenge test (asterisk on sample) / 1st 24, degree of microbial growth (ranking) / 1st 72, degree of microbial growth (ranking) / 2nd 72, degree of microbial growth (ranking) / 3rd 24, degree of microbial growth (ranking) / 3rd 72, degree of microbial growth (ranking): Dicyandiamide 0
Source text: However, using a combination of MIT and dicyandiamide can allow for effective microbial control at MIT concentrations as low as 20 ppm.
as §2

[4] = tested on: bacteria, fungi, and yeast; conditions: background statement; cited from earlier work
[5] = MIT - 50 30 ppm (MIT 15 ppm as active)
[6] = MIT - 50 40 ppm (MIT 20 ppm as active)
[7] = MIT - 50 50 ppm (MIT 25 ppm as active)
[8] = MIT - 50 60 ppm (MIT 30 ppm as active)
[9] = MIT - 50 70 ppm (MIT 35 ppm as active)

N#CN=C(N)N [Dicyandiamide, 2-cyanoguanidine]
Challenge 1 10% 24 h, degree of microbial growth (ranking) ([1]; Dicyandiamide 5,000 ppm): 5c
Challenge 1 10% 72 h, degree of microbial growth (ranking) ([1]; Dicyandiamide 5,000 ppm): 5c
Challenge 2 5% 72 h, degree of microbial growth (ranking) ([1]; Dicyandiamide 5,000 ppm): 5c
Challenge 3 2.5% 24 h, degree of microbial growth (ranking) ([1]; Dicyandiamide 5,000 ppm): 5c
Challenge 3 2.5% 72 h, dilution plate count ([1]; Dicyandiamide 5,000 ppm): 8.0×10^6
Challenge 1 10% 24 h, degree of microbial growth (ranking) ([1]; Dicyandiamide 10,000 ppm): 5c
Challenge 1 10% 72 h, degree of microbial growth (ranking) ([1]; Dicyandiamide 10,000 ppm): 1 (one (1) through five (5) observed colony forming unit (cfu), i.e., the plate was very lightly contaminated)
Challenge 2 5% 72 h, degree of microbial growth (ranking) ([1]; Dicyandiamide 10,000 ppm): 5 (greater than (45) cfu, i.e., the plate was severely contaminated)
Challenge 3 2.5% 24 h, degree of microbial growth (ranking) ([1]; Dicyandiamide 10,000 ppm): 5 (greater than (45) cfu, i.e., the plate was severely contaminated)
Challenge 3 2.5% 72 h, dilution plate count ([1]; Dicyandiamide 10,000 ppm): 4.2×10^6
Efficacy in challenge test compared to the blank ([1]; dicyandiamide alone, not in combination with BIT, Table 1): no significant difference compared to the blank
Challenge 1 10% 24 h, degree of microbial growth (ranking) ([2]; Dicyandiamide 5,000 ppm): 5c
Challenge 1 10% 72 h, degree of microbial growth (ranking) ([2]; Dicyandiamide 5,000 ppm): 5c
Challenge 2 5% 72 h, degree of microbial growth (ranking) ([2]; Dicyandiamide 5,000 ppm): 5c
Challenge 3 2.5% 24 h, degree of microbial growth (ranking) ([2]; Dicyandiamide 5,000 ppm): 5c
Challenge 3 2.5% 72 h, dilution plate count ([2]; Dicyandiamide 5,000 ppm): 2.4×10^7

Zinc pyrithione [ZPT]
Solubility in water [3]: 8 ppm

Cn1sccc1=O [MIT - 50, 2-methyl-4-isothiazolin-3-one]
Passing result of challenge test (asterisk on sample) (microbial growth; MIT 30 ppm as active): MIT - 50 60 ppm (30)*
Passing result of challenge test (asterisk on sample) (microbial growth; MIT 35 ppm as active): MIT - 50 70 ppm (35)*
1st 24, degree of microbial growth (ranking) (microbial growth; [5]): 5 (greater than (45) cfu, i.e., the plate was severely contaminated)
1st 72, degree of microbial growth (ranking) (microbial growth; [5]): 5 (greater than (45) cfu, i.e., the plate was severely contaminated)
2nd 72, degree of microbial growth (ranking) (microbial growth; [5]): 5 (greater than (45) cfu, i.e., the plate was severely contaminated)
3rd 24, degree of microbial growth (ranking) (microbial growth; [5]): 5 (greater than (45) cfu, i.e., the plate was severely contaminated)
3rd 72, degree of microbial growth (ranking) (microbial growth; [5]): 5 (greater than (45) cfu, i.e., the plate was severely contaminated)
1st 24, degree of microbial growth (ranking) (microbial growth; [6]): 5 (greater than (45) cfu, i.e., the plate was severely contaminated)
1st 72, degree of microbial growth (ranking) (microbial growth; [6]): 5 (greater than (45) cfu, i.e., the plate was severely contaminated)
2nd 72, degree of microbial growth (ranking) (microbial growth; [6]): 5 (greater than (45) cfu, i.e., the plate was severely contaminated)
3rd 24, degree of microbial growth (ranking) (microbial growth; [6]): 5 (greater than (45) cfu, i.e., the plate was severely contaminated)
3rd 72, degree of microbial growth (ranking) (microbial growth; [6]): 5 (greater than (45) cfu, i.e., the plate was severely contaminated)
1st 24, degree of microbial growth (ranking) (microbial growth; [7]): 5 (greater than (45) cfu, i.e., the plate was severely contaminated)
1st 72, degree of microbial growth (ranking) (microbial growth; [7]): 2 (six (6) through fifteen (15) cfu, i.e., the plate was lightly contaminated)
2nd 72, degree of microbial growth (ranking) (microbial growth; [7]): 5 (greater than (45) cfu, i.e., the plate was severely contaminated)
3rd 24, degree of microbial growth (ranking) (microbial growth; [7]): 5 (greater than (45) cfu, i.e., the plate was severely contaminated)
3rd 72, degree of microbial growth (ranking) (microbial growth; [7]): 5 (greater than (45) cfu, i.e., the plate was severely contaminated)
1st 24, degree of microbial growth (ranking) (microbial growth; [8]): 5 (greater than (45) cfu, i.e., the plate was severely contaminated)
1st 72, degree of microbial growth (ranking) (microbial growth; [8]): 0
2nd 72, degree of microbial growth (ranking) (microbial growth; [8]): 5 (greater than (45) cfu, i.e., the plate was severely contaminated)
3rd 24, degree of microbial growth (ranking) (microbial growth; [8]): 5 (greater than (45) cfu, i.e., the plate was severely contaminated)
3rd 72, degree of microbial growth (ranking) (microbial growth; [8]): 0
1st 24, degree of microbial growth (ranking) (microbial growth; [9]): 5 (greater than (45) cfu, i.e., the plate was severely contaminated)
1st 72, degree of microbial growth (ranking) (microbial growth; [9]): 0
2nd 72, degree of microbial growth (ranking) (microbial growth; [9]): 0
3rd 24, degree of microbial growth (ranking) (microbial growth; [9]): 5 (greater than (45) cfu, i.e., the plate was severely contaminated)
3rd 72, degree of microbial growth (ranking) (microbial growth; [9]): 0
MIT concentration displaying passing results (microbial growth; MIT alone, no guanidine enhancer): ≥ 30 ppm

O=c1[nH]sc2ccccc12 [BIT, 1,2-benzisothiazolin-3-one]
Challenge 1 10% 24 h, degree of microbial growth (ranking) ([1]; BIT 50 ppm): 5 (greater than (45) cfu, i.e., the plate was severely contaminated)
Challenge 1 10% 72 h, degree of microbial growth (ranking) ([1]; BIT 50 ppm): 2 (six (6) through fifteen (15) cfu, i.e., the plate was lightly contaminated)
Challenge 2 5% 72 h, degree of microbial growth (ranking) ([1]; BIT 50 ppm): 5 (greater than (45) cfu, i.e., the plate was severely contaminated)
Challenge 3 2.5% 24 h, degree of microbial growth (ranking) ([1]; BIT 50 ppm): 5c
Challenge 3 2.5% 72 h, dilution plate count ([1]; BIT 50 ppm): 7.8×10^6
Challenge 1 10% 24 h, degree of microbial growth (ranking) ([1]; BIT 100 ppm): 5 (greater than (45) cfu, i.e., the plate was severely contaminated)
Challenge 1 10% 72 h, degree of microbial growth (ranking) ([1]; BIT 100 ppm): 0
Challenge 2 5% 72 h, degree of microbial growth (ranking) ([1]; BIT 100 ppm): 0
Challenge 3 2.5% 24 h, degree of microbial growth (ranking) ([1]; BIT 100 ppm): 5 (greater than (45) cfu, i.e., the plate was severely contaminated)
Challenge 3 2.5% 72 h, dilution plate count ([1]; BIT 100 ppm): 5.0×10^1
Amount required for a reliable and quick biocidal activity [4]: ≤ 500 ppm
Challenge 1 10% 24 h, degree of microbial growth (ranking) ([2]; BIT 35 ppm): 5c
Challenge 1 10% 72 h, degree of microbial growth (ranking) ([2]; BIT 35 ppm): 5c
Challenge 2 5% 72 h, degree of microbial growth (ranking) ([2]; BIT 35 ppm): 5c
Challenge 3 2.5% 24 h, degree of microbial growth (ranking) ([2]; BIT 35 ppm): 5c
Challenge 3 2.5% 72 h, dilution plate count ([2]; BIT 35 ppm): 3.0×10^6
Challenge 1 10% 24 h, degree of microbial growth (ranking) ([2]; BIT 50 ppm): 5c
Challenge 1 10% 72 h, degree of microbial growth (ranking) ([2]; BIT 50 ppm): 5c
Challenge 2 5% 72 h, degree of microbial growth (ranking) ([2]; BIT 50 ppm): 5c
Challenge 3 2.5% 24 h, degree of microbial growth (ranking) ([2]; BIT 50 ppm): 5c
Challenge 3 2.5% 72 h, dilution plate count ([2]; BIT 50 ppm): 6.6×10^6
Challenge 1 10% 24 h, degree of microbial growth (ranking) ([2]; BIT 65 ppm): 5c
Challenge 1 10% 72 h, degree of microbial growth (ranking) ([2]; BIT 65 ppm): 3 (sixteen (16) through thirty (30) cfu, i.e., the plate was moderately contaminated)
Challenge 2 5% 72 h, degree of microbial growth (ranking) ([2]; BIT 65 ppm): 5c
Challenge 3 2.5% 24 h, degree of microbial growth (ranking) ([2]; BIT 65 ppm): 5c
Challenge 3 2.5% 72 h, dilution plate count ([2]; BIT 65 ppm): 1.0×10^6
Challenge 1 10% 24 h, degree of microbial growth (ranking) ([2]; BIT 75 ppm): 5c
Challenge 1 10% 72 h, degree of microbial growth (ranking) ([2]; BIT 75 ppm): 0
Challenge 2 5% 72 h, degree of microbial growth (ranking) ([2]; BIT 75 ppm): 5 (greater than (45) cfu, i.e., the plate was severely contaminated)
Challenge 3 2.5% 24 h, degree of microbial growth (ranking) ([2]; BIT 75 ppm): 5c
Challenge 3 2.5% 72 h, dilution plate count ([2]; BIT 75 ppm): 2.8×10^5
Challenge 1 10% 24 h, degree of microbial growth (ranking) ([2]; BIT 100 ppm): 5c
Challenge 1 10% 72 h, degree of microbial growth (ranking) ([2]; BIT 100 ppm): 0
Challenge 2 5% 72 h, degree of microbial growth (ranking) ([2]; BIT 100 ppm): 5 (greater than (45) cfu, i.e., the plate was severely contaminated)
Challenge 3 2.5% 24 h, degree of microbial growth (ranking) ([2]; BIT 100 ppm): 5c
Challenge 3 2.5% 72 h, dilution plate count ([2]; BIT 100 ppm): 1.8×10^7
